Reference: US9963703B2, “Compositions and methods for treating pancreatic cancer” (Autotelic LLC, priority 2016, dated 2018)
In the oligonucleotide strings, read from the 5' end, every base follows the letter of its sugar. An asterisk marks phosphorothioate; unmarked linkages are phosphodiester. Other units and linkages are bracketed, terminal groups are in braces. A string of capitals states the bases alone. d = 2'-deoxy (DNA)

Columns and labels:
[1] = Acute single dose toxicity in rats; type: in vivo
Procedure: The clinical starting dose for the 7-days-on and 7-days-off schedule was based on the Lowest-Observed-Adverse-Effect-Level (LOAEL) devoid of severe toxicity in Cynomolgus monkeys as the most relevant species. This LOAEL of 4 mg/kg body weight (b.w.)/day is equivalent to approximately 1.3 mg/kg b.w./day or 48 mg/m^2/day on a body surface area basis in human adults. These numbers were rounded down and the safe starting dose was defined at 40 mg/m^2/day, equivalent to approximately 1 mg/kg b.w./day in humans. An alternative approach would have been based on the lowest lethal dose (LLD) of 300 mg/kg b.w. obtained in the acute single dose toxicity study in mice (in rats it was determined at 1000 mg/kg), at which 1 of 10 mice died (LLD10). According to the standard method, 10% of this dose (30 mg/kg) on a body surface area basis would then be defined as the clinical starting dose resulting in 90 mg/m^2/day. In the end, the lower of the two alternatives was chosen as starting dose.

TGFβ2 [2] = assay: TGFβ2 secretion in A-172 glioma cells; type: cell-based
Procedure: (§1) A-172 glioma cells were treated with a combination of AP12009 (trabedersen) 0 to 10 μM) and different concentrations of TMZ (temozolomide) for 7 days (treatment schedule 2*2/1*3 d).
(§2) In summary there is no clear beneficial effect in combining AP12009 with TMZ in A-172 cells.

A-172 glioma cells [3] = assay: Proliferation of A-172 glioma cells; type: cell-based
Procedure: as §1, §2

A-172 glioma cells [4] = assay: A-172 glioma cells, alternative AP12009/TMZ treatment schedules (readout not stated); type: cell-based
Procedure: as §1

TGFβ2 [5] = assay: TGFβ2 secretion/expression in WiDr colon cancer cells; type: cell-based
From the text: The aim of the study was to determine the effect of AP12009 (trabedersen) treatment in combination with 5-Fluorouracil (5-FU) on TGFβ2 secretion and on cellular proliferation of HUP-T3 pancreatic cancer cells and WiDr colon cancer cells in vitro.

[6] = AP12009 in combination with TMZ

## trabedersen: TGF-beta2 specific phosphorothioate antisense oligodeoxynucleotide with the sequence 5′-CGGCATGTCTATTTTGTA-3′ (SEQ ID No: 1) (antisense dC*dG*dG*dC*dA*dT*dG*dT*dC*dT*dA*dT*dT*dT*dT*dG*dT*dA)
[1]
  lowest lethal dose (LLD): 1000 mg/kg
TGFβ2 [2]; [6]
  combination effect on inhibition of TGFβ2 secretion: additive effect
TGFβ2 [2]; monotherapy, 7 days
  effect on TGFβ2: strongly reduced
A-172 glioma cells [3]; [6]
  combination effect on cell proliferation: no reproducible beneficial effect
A-172 glioma cells [3]; monotherapy, 7 days
  effect on cell proliferation: slightly reduced
A-172 glioma cells [4]; TMZ day 0 for one day, AP12009 7 days (2*1/1*2/1*3 d)
  benefit of single TMZ treatment combined with 7 day AP12009 treatment: did not show any benefit or disadvantage
A-172 glioma cells [4]; pre-treatment (1*2/1*3 d) with AP12009 before combined AP12009 and TMZ (2*2/1*3 d)
  benefit of pre-treatment with AP12009: did not show any benefit
TGFβ2 [5]; 10 μM AP12009
  TGFβ2 expression, % of untreated control: 54%
TGFβ2 [5]; 10 μM AP12009 and 5-FU
  combination effect on TGFβ2 expression: sub-additive effects
